Laboratory results reported in ChEMBL document CHEMBL5291721, “A preclinical secondary pharmacology resource illuminates target-adverse drug reaction associations of marketed drugs” (Nat Commun, 2023).

Legend:
Androgen receptor [1] = target: T1, Androgen receptor (Rattus norvegicus, UniProt P15207); type: functional
T1 sequence (P15207 whole entry): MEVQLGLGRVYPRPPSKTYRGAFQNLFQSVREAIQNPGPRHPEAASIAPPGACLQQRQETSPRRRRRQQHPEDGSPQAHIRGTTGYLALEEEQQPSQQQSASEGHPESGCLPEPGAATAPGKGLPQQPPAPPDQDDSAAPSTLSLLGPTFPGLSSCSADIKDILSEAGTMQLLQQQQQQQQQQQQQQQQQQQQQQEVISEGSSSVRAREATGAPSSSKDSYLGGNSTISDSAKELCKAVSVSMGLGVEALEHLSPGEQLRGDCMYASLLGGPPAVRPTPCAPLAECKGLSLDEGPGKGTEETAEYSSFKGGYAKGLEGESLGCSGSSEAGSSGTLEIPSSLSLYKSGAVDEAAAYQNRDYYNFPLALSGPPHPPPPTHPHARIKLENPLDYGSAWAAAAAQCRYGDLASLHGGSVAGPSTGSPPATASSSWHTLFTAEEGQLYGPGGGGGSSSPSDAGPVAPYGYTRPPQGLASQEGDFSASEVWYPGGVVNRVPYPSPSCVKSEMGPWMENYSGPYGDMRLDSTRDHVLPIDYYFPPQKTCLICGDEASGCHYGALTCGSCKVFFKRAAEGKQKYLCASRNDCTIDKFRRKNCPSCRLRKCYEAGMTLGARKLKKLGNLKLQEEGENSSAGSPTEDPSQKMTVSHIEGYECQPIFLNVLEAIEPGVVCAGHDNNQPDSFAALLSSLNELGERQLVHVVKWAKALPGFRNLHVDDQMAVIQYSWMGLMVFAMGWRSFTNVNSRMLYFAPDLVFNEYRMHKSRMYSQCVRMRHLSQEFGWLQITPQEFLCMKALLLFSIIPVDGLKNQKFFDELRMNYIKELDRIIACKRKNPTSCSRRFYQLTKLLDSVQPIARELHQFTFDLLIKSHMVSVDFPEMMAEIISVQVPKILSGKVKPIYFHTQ

Androgen receptor [2] = target: T1, Androgen receptor; type: functional; remark: listed apart in the source
[3] = target: Sodium channel protein type 5 subunit alpha (Homo sapiens, UniProt Q14524); type: functional, cell-based
[4] = target: Gamma-aminobutyric acid type B receptor subunit 1 (Homo sapiens, UniProt Q9UBS5)
[5] = target: 5-hydroxytryptamine receptor 6 (Homo sapiens, UniProt P50406)
[6] = target: T2, Muscarinic acetylcholine receptor M5 (Homo sapiens, UniProt P08912)
T2 sequence (P08912 whole entry): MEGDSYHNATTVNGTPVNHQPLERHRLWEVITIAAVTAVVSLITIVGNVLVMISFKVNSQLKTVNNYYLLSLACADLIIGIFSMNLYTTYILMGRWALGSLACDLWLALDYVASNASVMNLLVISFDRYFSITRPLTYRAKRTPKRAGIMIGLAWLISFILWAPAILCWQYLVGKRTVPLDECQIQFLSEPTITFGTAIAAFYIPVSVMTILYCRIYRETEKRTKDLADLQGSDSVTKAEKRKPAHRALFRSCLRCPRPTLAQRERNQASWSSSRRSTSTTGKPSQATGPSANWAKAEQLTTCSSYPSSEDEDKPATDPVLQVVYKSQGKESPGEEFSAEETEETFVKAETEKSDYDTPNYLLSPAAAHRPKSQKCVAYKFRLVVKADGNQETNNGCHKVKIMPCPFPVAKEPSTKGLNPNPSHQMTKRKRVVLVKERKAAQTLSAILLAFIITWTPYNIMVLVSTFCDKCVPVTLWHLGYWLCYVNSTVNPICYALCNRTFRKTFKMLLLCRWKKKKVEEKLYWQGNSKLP

[7] = target: 5-hydroxytryptamine receptor 7 (Homo sapiens, UniProt P34969)
Adenosine receptor A1 = target: T3, Adenosine receptor A1 (Homo sapiens, UniProt P30542)
T3 sequence (P30542 whole entry): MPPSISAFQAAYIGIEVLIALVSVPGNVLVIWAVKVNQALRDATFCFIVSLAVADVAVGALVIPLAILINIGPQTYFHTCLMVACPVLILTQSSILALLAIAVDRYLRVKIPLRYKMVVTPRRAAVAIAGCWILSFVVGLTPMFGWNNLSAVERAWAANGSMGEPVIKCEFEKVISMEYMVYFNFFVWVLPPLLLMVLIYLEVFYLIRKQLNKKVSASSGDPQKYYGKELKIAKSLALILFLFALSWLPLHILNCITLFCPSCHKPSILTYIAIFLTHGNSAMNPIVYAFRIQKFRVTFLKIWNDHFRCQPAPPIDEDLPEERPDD

Cannabinoid receptor 1 = Cannabinoid receptor 1 (Homo sapiens, UniProt P21554); type: functional
Acetylcholinesterase = Acetylcholinesterase (Homo sapiens, UniProt P22303); type: functional
Thromboxane A2 receptor = target: T4, Thromboxane A2 receptor (Homo sapiens, UniProt P21731); type: functional, cell-based
T4 sequence (P21731 whole entry): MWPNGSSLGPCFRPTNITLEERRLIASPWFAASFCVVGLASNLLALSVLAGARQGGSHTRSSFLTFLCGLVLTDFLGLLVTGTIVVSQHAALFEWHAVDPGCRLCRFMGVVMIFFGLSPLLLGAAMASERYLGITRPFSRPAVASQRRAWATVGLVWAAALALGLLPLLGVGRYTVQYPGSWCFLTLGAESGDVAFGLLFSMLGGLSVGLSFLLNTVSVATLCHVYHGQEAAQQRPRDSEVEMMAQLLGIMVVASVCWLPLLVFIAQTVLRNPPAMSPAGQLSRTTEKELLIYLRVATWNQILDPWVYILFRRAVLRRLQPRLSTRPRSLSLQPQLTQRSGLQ

[8] = target: 5-hydroxytryptamine receptor 2A (Homo sapiens, UniProt P28223)
Androgen receptor [9] = target: T1, Androgen receptor
Also: assay procedure not described here.

Chain of 5-hydroxytryptamine receptor 6 (P50406 whole entry): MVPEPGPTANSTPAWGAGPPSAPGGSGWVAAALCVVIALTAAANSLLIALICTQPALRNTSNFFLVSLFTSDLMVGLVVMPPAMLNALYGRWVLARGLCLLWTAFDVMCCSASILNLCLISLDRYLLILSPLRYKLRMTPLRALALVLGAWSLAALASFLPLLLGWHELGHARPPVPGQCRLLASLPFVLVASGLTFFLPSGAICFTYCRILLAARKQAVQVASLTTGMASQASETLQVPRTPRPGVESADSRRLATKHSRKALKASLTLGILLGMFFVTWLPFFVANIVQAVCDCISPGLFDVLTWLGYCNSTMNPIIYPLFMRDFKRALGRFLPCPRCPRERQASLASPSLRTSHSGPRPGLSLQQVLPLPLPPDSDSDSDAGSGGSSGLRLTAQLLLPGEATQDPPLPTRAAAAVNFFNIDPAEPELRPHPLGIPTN
Chain of Acetylcholinesterase (P22303 whole entry): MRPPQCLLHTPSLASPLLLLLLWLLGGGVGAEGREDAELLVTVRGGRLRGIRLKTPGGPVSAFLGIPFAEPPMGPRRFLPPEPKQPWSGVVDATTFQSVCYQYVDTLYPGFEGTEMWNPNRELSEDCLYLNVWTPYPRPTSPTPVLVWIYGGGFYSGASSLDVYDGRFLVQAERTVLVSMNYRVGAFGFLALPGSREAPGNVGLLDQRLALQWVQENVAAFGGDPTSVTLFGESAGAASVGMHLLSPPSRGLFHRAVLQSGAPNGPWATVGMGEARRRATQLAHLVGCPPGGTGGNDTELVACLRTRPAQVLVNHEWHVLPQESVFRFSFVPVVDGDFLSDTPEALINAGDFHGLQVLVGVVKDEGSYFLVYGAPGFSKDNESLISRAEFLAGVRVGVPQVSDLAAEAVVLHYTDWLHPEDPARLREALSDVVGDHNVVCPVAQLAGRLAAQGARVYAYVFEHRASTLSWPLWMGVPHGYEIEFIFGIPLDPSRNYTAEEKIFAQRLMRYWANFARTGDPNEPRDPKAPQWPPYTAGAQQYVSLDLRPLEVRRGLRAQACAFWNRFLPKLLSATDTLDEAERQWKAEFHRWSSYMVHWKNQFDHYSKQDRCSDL
Chain of Sodium channel protein type 5 subunit alpha (Q14524 whole entry): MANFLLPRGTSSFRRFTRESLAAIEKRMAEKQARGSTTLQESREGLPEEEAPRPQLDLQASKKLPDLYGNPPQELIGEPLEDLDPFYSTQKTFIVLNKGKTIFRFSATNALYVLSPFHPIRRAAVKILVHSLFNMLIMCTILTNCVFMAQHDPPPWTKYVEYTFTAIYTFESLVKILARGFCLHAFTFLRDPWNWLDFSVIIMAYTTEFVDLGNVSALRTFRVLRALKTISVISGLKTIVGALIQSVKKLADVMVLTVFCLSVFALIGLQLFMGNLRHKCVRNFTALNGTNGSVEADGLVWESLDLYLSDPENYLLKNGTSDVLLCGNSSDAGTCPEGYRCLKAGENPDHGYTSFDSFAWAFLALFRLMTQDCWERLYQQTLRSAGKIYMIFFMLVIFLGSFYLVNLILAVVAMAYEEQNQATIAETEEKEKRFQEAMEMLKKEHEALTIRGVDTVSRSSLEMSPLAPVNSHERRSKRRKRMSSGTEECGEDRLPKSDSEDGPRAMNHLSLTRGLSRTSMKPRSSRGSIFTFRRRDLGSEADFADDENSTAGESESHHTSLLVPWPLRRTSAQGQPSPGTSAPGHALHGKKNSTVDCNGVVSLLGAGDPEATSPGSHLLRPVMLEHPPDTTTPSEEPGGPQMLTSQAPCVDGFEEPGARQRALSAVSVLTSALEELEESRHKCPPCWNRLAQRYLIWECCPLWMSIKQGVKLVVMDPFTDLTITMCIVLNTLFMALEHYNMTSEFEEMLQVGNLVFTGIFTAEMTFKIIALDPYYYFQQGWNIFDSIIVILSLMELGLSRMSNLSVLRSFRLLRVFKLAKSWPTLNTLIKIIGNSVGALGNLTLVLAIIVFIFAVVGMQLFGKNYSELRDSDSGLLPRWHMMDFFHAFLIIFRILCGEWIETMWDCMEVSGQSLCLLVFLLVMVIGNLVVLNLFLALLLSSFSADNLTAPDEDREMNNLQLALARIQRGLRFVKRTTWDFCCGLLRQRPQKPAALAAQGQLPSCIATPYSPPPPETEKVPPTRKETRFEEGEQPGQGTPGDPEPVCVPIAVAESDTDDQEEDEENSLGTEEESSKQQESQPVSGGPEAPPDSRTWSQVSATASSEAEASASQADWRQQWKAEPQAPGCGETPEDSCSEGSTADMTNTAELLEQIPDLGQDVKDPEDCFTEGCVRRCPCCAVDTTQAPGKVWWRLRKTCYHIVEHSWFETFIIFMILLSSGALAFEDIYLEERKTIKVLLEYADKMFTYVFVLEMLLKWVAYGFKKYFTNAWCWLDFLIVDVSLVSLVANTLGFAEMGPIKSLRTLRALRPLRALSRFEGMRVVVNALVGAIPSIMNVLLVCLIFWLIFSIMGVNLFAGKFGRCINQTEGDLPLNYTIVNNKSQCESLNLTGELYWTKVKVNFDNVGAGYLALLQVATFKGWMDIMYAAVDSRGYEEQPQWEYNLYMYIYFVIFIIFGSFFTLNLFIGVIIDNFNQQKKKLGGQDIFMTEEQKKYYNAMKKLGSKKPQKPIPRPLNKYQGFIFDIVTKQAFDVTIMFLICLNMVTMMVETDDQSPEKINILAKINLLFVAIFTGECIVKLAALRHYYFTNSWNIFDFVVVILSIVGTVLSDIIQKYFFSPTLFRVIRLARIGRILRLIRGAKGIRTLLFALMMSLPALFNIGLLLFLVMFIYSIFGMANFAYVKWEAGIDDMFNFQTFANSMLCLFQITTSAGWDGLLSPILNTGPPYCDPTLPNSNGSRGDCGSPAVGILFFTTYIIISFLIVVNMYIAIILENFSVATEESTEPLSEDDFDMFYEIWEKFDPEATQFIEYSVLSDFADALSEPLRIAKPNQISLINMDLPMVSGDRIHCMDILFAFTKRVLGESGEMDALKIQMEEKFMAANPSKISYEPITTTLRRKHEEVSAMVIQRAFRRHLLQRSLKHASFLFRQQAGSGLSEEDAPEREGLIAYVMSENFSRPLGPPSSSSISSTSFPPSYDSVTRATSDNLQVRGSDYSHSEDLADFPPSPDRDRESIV
Chain of 5-hydroxytryptamine receptor 7 (P34969 whole entry): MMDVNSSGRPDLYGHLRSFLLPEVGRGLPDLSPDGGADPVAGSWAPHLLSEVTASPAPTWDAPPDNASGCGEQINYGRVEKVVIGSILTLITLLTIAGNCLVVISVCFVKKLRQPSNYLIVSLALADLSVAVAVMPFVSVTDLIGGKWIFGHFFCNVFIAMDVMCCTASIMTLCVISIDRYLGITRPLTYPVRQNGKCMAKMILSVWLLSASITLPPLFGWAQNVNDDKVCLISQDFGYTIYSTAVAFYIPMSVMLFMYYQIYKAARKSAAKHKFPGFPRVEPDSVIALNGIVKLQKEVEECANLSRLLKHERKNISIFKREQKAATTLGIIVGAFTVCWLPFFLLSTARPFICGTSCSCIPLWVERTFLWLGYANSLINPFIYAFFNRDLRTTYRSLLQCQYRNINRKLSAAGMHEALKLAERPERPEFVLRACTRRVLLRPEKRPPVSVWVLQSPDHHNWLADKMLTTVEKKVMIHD
Chain of Cannabinoid receptor 1 (P21554 whole entry): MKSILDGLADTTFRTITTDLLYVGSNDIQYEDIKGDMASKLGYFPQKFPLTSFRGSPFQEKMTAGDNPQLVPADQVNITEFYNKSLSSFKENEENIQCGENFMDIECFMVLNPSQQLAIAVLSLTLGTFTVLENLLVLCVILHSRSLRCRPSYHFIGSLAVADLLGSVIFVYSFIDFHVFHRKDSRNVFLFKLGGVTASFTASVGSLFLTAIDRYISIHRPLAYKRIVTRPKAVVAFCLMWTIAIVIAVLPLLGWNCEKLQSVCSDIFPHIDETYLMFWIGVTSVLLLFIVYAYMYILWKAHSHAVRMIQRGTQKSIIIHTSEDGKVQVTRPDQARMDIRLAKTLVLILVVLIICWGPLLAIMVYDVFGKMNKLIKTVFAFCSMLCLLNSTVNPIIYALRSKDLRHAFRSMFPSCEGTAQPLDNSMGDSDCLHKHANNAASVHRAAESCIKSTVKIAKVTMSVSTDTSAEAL
Chain of Gamma-aminobutyric acid type B receptor subunit 1 (Q9UBS5 whole entry): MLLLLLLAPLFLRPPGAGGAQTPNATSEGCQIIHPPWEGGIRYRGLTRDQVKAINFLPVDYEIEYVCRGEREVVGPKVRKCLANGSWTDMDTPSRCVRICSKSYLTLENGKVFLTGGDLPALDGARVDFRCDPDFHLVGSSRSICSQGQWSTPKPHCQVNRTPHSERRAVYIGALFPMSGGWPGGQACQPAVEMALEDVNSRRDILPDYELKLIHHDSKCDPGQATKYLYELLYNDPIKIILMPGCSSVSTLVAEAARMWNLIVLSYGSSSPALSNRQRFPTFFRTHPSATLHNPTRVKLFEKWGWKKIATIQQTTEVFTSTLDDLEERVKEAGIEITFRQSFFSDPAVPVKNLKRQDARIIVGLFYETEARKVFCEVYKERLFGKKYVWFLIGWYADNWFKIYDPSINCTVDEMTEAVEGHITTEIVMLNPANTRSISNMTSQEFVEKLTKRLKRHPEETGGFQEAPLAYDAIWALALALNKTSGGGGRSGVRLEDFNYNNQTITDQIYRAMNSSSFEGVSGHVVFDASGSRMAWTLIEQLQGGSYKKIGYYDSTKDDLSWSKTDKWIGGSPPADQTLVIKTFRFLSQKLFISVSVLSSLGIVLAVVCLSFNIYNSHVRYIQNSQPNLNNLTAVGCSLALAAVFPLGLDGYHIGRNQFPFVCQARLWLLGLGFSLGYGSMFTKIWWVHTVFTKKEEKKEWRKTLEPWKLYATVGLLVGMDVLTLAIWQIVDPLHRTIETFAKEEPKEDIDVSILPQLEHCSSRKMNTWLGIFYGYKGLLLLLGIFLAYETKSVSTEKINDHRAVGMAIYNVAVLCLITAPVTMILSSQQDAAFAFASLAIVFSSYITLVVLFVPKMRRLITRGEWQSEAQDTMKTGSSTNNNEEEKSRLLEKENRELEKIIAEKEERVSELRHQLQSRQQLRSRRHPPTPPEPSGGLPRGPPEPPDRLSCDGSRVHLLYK

| SMILES | AC50 (Androgen receptor [1]) | AC50 (Adenosine receptor A1) | AC50 (Acetylcholinesterase) | AC50 (Thromboxane A2 receptor) | other results |
| --- | --- | --- | --- | --- | --- |
| CC(=O)Nc1ccc(O)cc1 [ACETAMINOPHEN] | > 30 µM | – | – | – | – |
| C=CCc1ccccc1OCC(O)CNC(C)C (stereo not drawn) [ALPRENOLOL] | > 30 µM | – | – | – | AC50 (Androgen receptor [2]): > 30 µM |
| CC[C@H]1OC(=O)[C@H](C)[C@@H](O[C@H]2C[C@@](C)(OC)[C@@H](O)[C@H](C)O2)[C@H](C)[C@@H](O[C@@H]2O[C@H](C)C[C@H](N(C)C)[C@H]2O)[C@](C)(O)C[C@@H](C)CN(C)[C@H](C)[C@@H](O)[C@]1(C)O [AZITHROMYCIN] | – | > 30 µM | – | – | AC50 [3]: > 30 µM; AC50 [4]: > 10 µM; AC50 [5]: > 10 µM; AC50 [6]: > 10 µM; AC50 [7]: > 10 µM; AC50 (Cannabinoid receptor 1): > 10 µM |
| CCc1oc2ccccc2c1C(=O)c1cc(I)c(O)c(I)c1 [BENZIODARONE] | – | 18.2 µM | – | – | – |
| CC(C)C[C@H]1C(=O)N2CCC[C@H]2[C@]2(O)O[C@](NC(=O)[C@@H]3C=C4c5cccc6[nH]c(Br)c(c56)C[C@H]4N(C)C3)(C(C)C)C(=O)N12 [BROMOCRIPTINE] | – | – | > 30 µM | > 30 µM | – |
| O=C(Cc1ccc(-c2ccccc2)cc1)Nc1ccccn1 [DIFENPIRAMIDE] | – | > 30 µM | – | – | – |
| O=C1Nc2ccc(Cl)cc2[C@@](C#CC2CC2)(C(F)(F)F)O1 [EFAVIRENZ] | – | – | – | – | AC50 [8]: 3.79 µM |
| Cc1cc(C#N)cc(C)c1Oc1nc(Nc2ccc(C#N)cc2)nc(N)c1Br [ETRAVIRINE] | – | 22.5 µM | – | – | – |
| O=C(OCC(O)CO)c1ccccc1Nc1ccnc2cc(Cl)ccc12 (stereo not drawn) [GLAFENINE] | > 30 µM | – | > 30 µM | 9.8 µM | – |
| CCC1=C(C)CN(C(=O)NCCc2ccc(S(=O)(=O)NC(=O)N[C@H]3CC[C@H](C)CC3)cc2)C1=O [GLIMEPIRIDE] | – | > 30 µM | – | – | – |
| CCC(C)n1ncn(-c2ccc(N3CCN(c4ccc(OCC5COC(Cn6cncn6)(c6ccc(Cl)cc6Cl)O5)cc4)CC3)cc2)c1=O (stereo not drawn) [ITRACONAZOLE] | – | – | – | – | AC50 [4]: > 10 µM; AC50 [5]: > 10 µM; AC50 [6]: > 10 µM; AC50 [7]: > 10 µM; AC50 (Cannabinoid receptor 1): > 10 µM |
| c1ccc([C@H]2CN3CCSC3=N2)cc1 [LEVAMISOLE] | – | – | > 30 µM | > 30 µM | AC50 [3]: > 50 µM |
| CN1C(C(=O)Nc2ccccn2)=C(O)c2sc(Cl)cc2S1(=O)=O [LORNOXICAM] | – | – | – | – | AC50 (Androgen receptor [9]): > 30 µM; AC50 [8]: > 10 µM |
| C[C@@H](O)[C@H]1C(=O)N2C(C(=O)O)=C(S[C@@H]3CN[C@H](C(=O)N(C)C)C3)[C@H](C)[C@H]12 [MEROPENEM] | – | – | > 300 µM | > 300 µM | – |
| CNC1Cc2ccccc2N(C)c2ccccc21 (stereo not drawn) [METAPRAMINE] | > 30 µM | – | > 30 µM | > 30 µM | – |
| CC1(C)NC(=O)N(c2ccc([N+](=O)[O-])c(C(F)(F)F)c2)C1=O [NILUTAMIDE] | – | > 30 µM | – | – | – |
| COc1ccc(CC(C)(C)NC[C@H](O)c2cc(O)cc3c2OCC(=O)N3)cc1 [OLODATEROL] | > 30 µM | – | > 30 µM | – | AC50 [3]: > 50 µM |
| CCCN1C[C@H](CSC)C[C@@H]2c3cccc4[nH]cc(c34)C[C@H]21 [PERGOLIDE] | – | – | – | – | AC50 [4]: > 10 µM |
| C1CCC(C(CC2CCCCN2)C2CCCCC2)CC1 (stereo not drawn) [PERHEXILINE] | > 30 µM | – | – | – | – |
| c1cnc(N2CCN(Cc3ccc4c(c3)OCO4)CC2)nc1 [PIRIBEDIL] | – | – | > 30 µM | > 30 µM | – |
| COCCCN1CCC(NC(=O)c2cc(Cl)c(N)c3c2OCC3)CC1 [PRUCALOPRIDE] | – | > 30 µM | – | – | – |
| Cc1cn([C@H]2C=C[C@@H](CO)O2)c(=O)[nH]c1=O [STAVUDINE] | – | > 30 µM | – | > 30 µM | AC50 [4]: > 10 µM; AC50 [5]: > 10 µM; AC50 [6]: > 10 µM; AC50 [7]: > 10 µM; AC50 (Cannabinoid receptor 1): > 10 µM |
| CCOC(=O)[C@H](CCc1ccccc1)N[C@@H](C)C(=O)N1[C@H](C(=O)O)C[C@H]2CCCC[C@@H]21 [TRANDOLAPRIL] | – | > 30 µM | – | – | – |
| O=C(O[C@H]1C[C@H]2CC[C@@H](C1)[N+]21CCCC1)C(O)(c1ccccc1)c1ccccc1 [TROSPIUM] | > 30 µM | – | – | – | AC50 (Androgen receptor [2]): > 30 µM |
| N[C@@H]1[C@H]2CN(c3nc4c(cc3F)c(=O)c(C(=O)O)cn4-c3ccc(F)cc3F)C[C@@H]12 [TROVAFLOXACIN] | > 30 µM | – | > 30 µM | > 30 µM | – |
| NS(=O)(=O)Cc1noc2ccccc12 [ZONISAMIDE] | – | – | – | – | AC50 (Androgen receptor [9]): > 10 µM |
